Seven molecules from ChEMBL document CHEMBL1255272, “In vitro activity of AR-709 against Streptococcus pneumoniae” (2008) can be followed below.

Common to all, as to type: functional
Assay [1] relates to Streptococcus pneumoniae. Nature of the assay: Antibacterial activity against multidrug resistant Streptococcus pneumoniae by microdilution method.
Assay [2] deals with Streptococcus pneumoniae. Nature of the assay: Antibacterial activity against Streptococcus pneumoniae by microdilution method. In general terms: In broth dilution the organism is exposed to a series of concentrations in liquid medium.
The test system of assay [3] is Streptococcus pneumoniae. Description: Antibacterial activity against azithromycin susceptible Streptococcus pneumoniae by microdilution method.
In assay [4] the test system is Streptococcus pneumoniae. Description: Antibacterial activity against Streptococcus pneumoniae ATCC 49619 by microdilution method.
For assay [5], the system named is Streptococcus pneumoniae. Description: Antibacterial activity against cotrimoxazole intermediate Streptococcus pneumoniae by microdilution method.
Assay [6] concerns Streptococcus pneumoniae. Nature of the assay: Antibacterial activity against cotrimoxazole resistant Streptococcus pneumoniae by microdilution method.
Assay [7] concerns Streptococcus pneumoniae. Description: Antibacterial activity against amoxicillin-clavulanic acid resistant Streptococcus pneumoniae by microdilution method.
In assay [8] the test system is Streptococcus pneumoniae. Nature of the assay: Antibacterial activity against cotrimoxazole susceptible Streptococcus pneumoniae by microdilution method.
The subject of assay [9] is Streptococcus pneumoniae. Description: Antibacterial activity against penicillin intermediate Streptococcus pneumoniae by microdilution method.
The test system of assay [10] is Streptococcus pneumoniae. Description: Antibacterial activity against penicillin resistant Streptococcus pneumoniae by microdilution method.
Assay [11] has as its system Streptococcus pneumoniae. Nature of the assay: Antibacterial activity against amoxicillin-clavulanic acid susceptible Streptococcus pneumoniae by microdilution method.
For assay [12], the system named is Streptococcus pneumoniae. Nature of the assay: Antibacterial activity against penicillin susceptible Streptococcus pneumoniae by microdilution method.
Assay [13] concerns Streptococcus pneumoniae. Description: Antibacterial activity against azithromycin resistant Streptococcus pneumoniae by microdilution method.
Assay [14] has as its system Streptococcus pneumoniae. Description: Antibacterial activity against Streptococcus pneumoniae assessed as susceptible isolates by microdilution method in presence of beta lactamase inhibitor clavulanic acid.
Assay [15] has as its system Streptococcus pneumoniae. Description: Antibacterial activity against Streptococcus pneumoniae assessed as resistant isolates by microdilution method in presence of beta lactamase inhibitor clavulanic acid.
Assay [16] deals with Streptococcus pneumoniae. Nature of the assay: Antibacterial activity against Streptococcus pneumoniae assessed as resistant isolates by microdilution method.
The subject of assay [17] is Streptococcus pneumoniae. Description: Antibacterial activity against Streptococcus pneumoniae by microdilution method in presence of beta lactamase inhibitor clavulanic acid.
Assay [18] deals with Streptococcus pneumoniae. Nature of the assay: Antibacterial activity against Streptococcus pneumoniae assessed as susceptible isolates by microdilution method.

≈ marks a conversion by molar mass, not a printed value.

Regarding `COc1cc(Cc2cnc(N)nc2N)c2cc(Cc3c(C(=O)N(C)C)[nH]c4ccc(Cl)cc34)oc2c1OC`, the MIC50 is 0.12 µg/mL (≈ 0.224 µM) in the assay with Streptococcus pneumoniae [1]; 0.03 µg/mL (≈ 0.0561 µM) against Streptococcus pneumoniae [2]; not above 0.015 µg/mL against Streptococcus pneumoniae [3]; not above 0.015 µg/mL in the assay with Streptococcus pneumoniae [5]; 0.12 µg/mL (≈ 0.224 µM) in the assay on Streptococcus pneumoniae [6]; 0.06 µg/mL with Streptococcus pneumoniae [7]. Moreover, the MIC50 is not above 0.015 µg/mL with Streptococcus pneumoniae [8]; 0.03 µg/mL (≈ 0.0561 µM) against Streptococcus pneumoniae [9]; 0.06 µg/mL (≈ 0.112 µM) against Streptococcus pneumoniae [10]; not above 0.015 µg/mL in the assay with Streptococcus pneumoniae [11]; not above 0.015 µg/mL in the assay on Streptococcus pneumoniae [12]; 0.06 µg/mL (≈ 0.112 µM) in the assay on Streptococcus pneumoniae [13]. Besides, the MIC90 turned out to be 0.25 µg/mL (≈ 0.467 µM) against Streptococcus pneumoniae [1]; 0.25 µg/mL (≈ 0.467 µM) in the assay with Streptococcus pneumoniae [2]; 0.12 µg/mL (≈ 0.224 µM) against Streptococcus pneumoniae [3]; 0.06 µg/mL (≈ 0.112 µM) with Streptococcus pneumoniae [5]; 0.25 µg/mL (≈ 0.467 µM) with Streptococcus pneumoniae [6]; 0.25 µg/mL in the assay with Streptococcus pneumoniae [7]. Further, the MIC90 in the assay with Streptococcus pneumoniae [8] was 0.03 µg/mL (≈ 0.0561 µM); in the assay on Streptococcus pneumoniae [9] it was 0.12 µg/mL (≈ 0.224 µM); in the assay with Streptococcus pneumoniae [10], 0.25 µg/mL (≈ 0.467 µM); in the assay on Streptococcus pneumoniae [11] it was 0.06 µg/mL; with Streptococcus pneumoniae [12], not above 0.015 µg/mL; in the assay with Streptococcus pneumoniae [13] it was 0.25 µg/mL (≈ 0.467 µM). The molecule also came in with an MIC in the assay with Streptococcus pneumoniae [4] not above 0.015 µg/mL.

`CC1(C)S[C@@H]2[C@H](NC(=O)[C@H](N)c3ccc(O)cc3)C(=O)N2[C@H]1C(=O)O` [AMOXICILLIN]: the values for the MIC50 against Streptococcus pneumoniae [2] and in the assay on Streptococcus pneumoniae [17] were 0.25 µg/mL (≈ 0.684 µM) and 0.25 µg/mL, respectively. Also, the figures for the MIC90 in the assay on Streptococcus pneumoniae [2] and with Streptococcus pneumoniae [17] were 4 µg/mL (≈ 10.9 µM) and 4 µg/mL, respectively. Further, the Activity with Streptococcus pneumoniae [14] was 55%; with Streptococcus pneumoniae [15], 39.1%; with Streptococcus pneumoniae [16] it was 39.7%; with Streptococcus pneumoniae [18], 55%.

The molecule `CC[C@H]1OC(=O)[C@H](C)[C@@H](O[C@H]2C[C@@](C)(OC)[C@@H](O)[C@H](C)O2)[C@H](C)[C@@H](O[C@@H]2O[C@H](C)C[C@H](N(C)C)[C@H]2O)[C@](C)(O)C[C@@H](C)CN(C)[C@H](C)[C@@H](O)[C@]1(C)O` [AZITHROMYCIN] displayed an MIC50 in the assay with Streptococcus pneumoniae [2] of 0.12 µg/mL (≈ 0.16 µM). In the assay with Streptococcus pneumoniae [2], this molecule registered an MIC90 of more than 8 µg/mL. For the same molecule, the Activity is recorded as 37.7% in the assay with Streptococcus pneumoniae [16] and 62.3% in the assay with Streptococcus pneumoniae [18].

In the assay with Streptococcus pneumoniae [2], `COc1c(N2CCNC(C)C2)c(F)cc2c(=O)c(C(=O)O)cn(C3CC3)c12` (stereo not given) [GATIFLOXACIN] displayed an MIC50 of 0.25 µg/mL (≈ 0.666 µM) and an MIC90 of 0.25 µg/mL (≈ 0.666 µM). In addition, the Activity with Streptococcus pneumoniae [16] was 0.7%. The Activity in the assay with Streptococcus pneumoniae [18] is 98.7%.

On to `CC1(C)S[C@@H]2[C@H](NC(=O)Cc3ccccc3)C(=O)N2[C@H]1C(=O)O` [PENICILLIN G], for which the MIC50 in the assay with Streptococcus pneumoniae [2] stood at 0.25 µg/mL (≈ 0.748 µM). In the assay on Streptococcus pneumoniae [2], this molecule showed an MIC90 of 2 µg/mL (≈ 5.98 µM). Besides, the Activity came to 38.4% in the assay with Streptococcus pneumoniae [16] and 41.7% with Streptococcus pneumoniae [18].

Regarding `CC[C@H]1OC(=O)[C@H](C)C(=O)[C@H](C)[C@@H](O[C@@H]2O[C@H](C)C[C@H](N(C)C)[C@H]2O)[C@](C)(OC)C[C@@H](C)C(=O)[C@H](C)[C@H]2N(CCCCn3cnc(-c4cccnc4)c3)C(=O)O[C@]12C` [TELITHROMYCIN], the MIC90 with Streptococcus pneumoniae [2] stood at 0.5 µg/mL (≈ 0.616 µM). Also, the Activity in the assay with Streptococcus pneumoniae [16] is listed as 0.7%; in the assay on Streptococcus pneumoniae [18], 98%.

Turning to `COc1cc(Cc2cnc(N)nc2N)cc(OC)c1OC` [TRIMETHOPRIM], in the assay on Streptococcus pneumoniae [2], the MIC50 was determined as 4 µg/mL (≈ 13.8 µM) and the MIC90 was more than 32 µg/mL.

Broadly, the MIC50 is the lowest concentration that inhibits either 50% of growth or 50% of the strains tested, depending on the study. Broadly, the MIC90 is the lowest concentration that inhibits either 90% of growth or 90% of the strains tested, depending on the study. What is called MIC is the lowest concentration found to suppress growth.
